Assay [1] has as its target T1, STING (Homo sapiens, UniProt Q86WV6).
T1 construct: endogenous in cells; host or cells: human skin fibroblasts
The experiment in a line: Human FB STING antagonist assay (IFN-a/b release). In kind it is cell-based. As to conditions: Human skin fibroblasts, 2h pre-treatment, 300 nM GSK STING agonist (CAS number: 2138299-34-8) for 20 h, release of IFN-a/b by HEK-Blue IFN-α/β bioassay. Here is the method:
STING antagonist activity can be determined by a human fibroblast antagonist assay. For this, human skin fibroblasts are pre-treated for 2h with a serial dilution of the compound, and are then stimulated for 20 hours with 300 nM STING agonist (e.g. from GSK, CAS number: 2138299-34-8). Supernatants are then harvested and assessed for IFN-a/b release, which indicates STING activation. IFN-a/b concentration in the supernatant is determined, e.g. using an IFN-α/β bioassay. IC50 values are calculated using a non-linear regression fitting, variable slope (4 parameters).
Human skin fibroblasts were pre-treated for 2h with a serial dilution of test compound followed by stimulation with mock or 300 nM GSK STING agonist (CAS number: 2138299-34-8). Supernatants were harvested after 20 h of STING agonist stimulation. Release of IFN-a/b was determined using HEK-Blue IFN-α/β bioassay (Invivogen). Cellular viability was assessed using Alamar Blue HS assay. IC50 values were estimated using a non-linear regression fitting, variable slope (4 parameters) in GraphPad Prism 9.3.1.

Assay [2] addresses T2, C-terminal domain (CTD) of human STING (Homo sapiens, UniProt Q86WV6). As to the kind of experiment: STING binding FP assay I (fluorescence polarization competition binding). Details: recombinant human STING protein (155-379). As to conditions: recombinant human STING protein (155-379), 35 nM STING, 4 nM fluorescein-labelled STING ligand (Probe 1), 20 min at room temperature. As for the experimental part:
(§1) The interaction between molecules and the C-terminal domain (CTD) of human STING was evaluated using a competition binding assay. In this assay, recombinant human STING protein (155-379) and a STING binding fluorescent probe were employed. Upon binding of the probe to STING, the rotation of the fluorescent probe is slowed due to the larger molecular size of the protein-bound complex. As a result, emitted light retains its plane of polarization, leading to an increase in fluorescence polarization. Molecules competing for the probe binding site displace the probe, which leads to rapid randomization of the polarization plane of the emitted light and a subsequent decrease in measured fluorescence polarization signal. Change in polarization was measured, allowing a comparative evaluation of the binding affinities of different compounds to the target protein.
(§2) The assay was performed in 96-well plates (ThermoFisher, cat.# 237108) containing 100 µl : 10 µL test compound in 10% DMSO and buffer A (150 mM NaCl, 50 mM HEPES pH 7.5, 1 mM DTT) + 90 µL prepared master mix solution of: 4 nM fluorescein-labelled STING ligand (Probe 1; synthesis described above) in buffer A + 0.055% Tween-20 (v/v) and 35 nM STING in buffer A. Post mixing, plates were agitated at 600 rpm and incubated for 20 min at room temperature. Subsequent measurements of the fluorescence polarization signal were made on a BioTek Synergy-H1 plate reader, using a polarization filter; excitation: 485/20 nm, emission: 528/20 nm) with a gain-setting of 75. IC50 values were determined using a standard non-linear regression four-parameter curve fit in Graphpad Prism.
Target sequence in this assay (Q86WV6 155-379): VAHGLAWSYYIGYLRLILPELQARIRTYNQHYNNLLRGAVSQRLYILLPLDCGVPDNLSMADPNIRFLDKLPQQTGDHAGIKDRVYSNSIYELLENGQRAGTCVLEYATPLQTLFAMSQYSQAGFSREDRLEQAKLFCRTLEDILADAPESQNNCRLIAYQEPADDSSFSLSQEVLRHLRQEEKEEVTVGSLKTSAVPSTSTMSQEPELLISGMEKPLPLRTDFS

Assay [3] deals with T2, C-terminal domain (CTD) of human STING. The experiment in a line: STING binding TR-FRET assay (CisBio Human STING WT Binding Kit). Details: purchased CisBio 64BDSTGPEG
As to conditions: recombinant human STING with His-tag, D2-labeled active site probe, 60 min at room temperature. Here is the method:
STING binding can be determined by a time-resolved FRET assay. For instance, a STING protein having a His-tag can be used. A D2-labeled active site probe can be used to accept 620 nm emission from Anti-HIS-Tb-STING. Increased fluorescence is measured at 665 nm. Molecules that compete for the probe binding site will result in a lower 665 nm signal. The assay can be performed in low-volume white 96-well plates containing 5 µL compounds in an appropriate diluent buffer. Following 60 minutes incubation at room temperature in the dark, fluorescence emission at 665 nm is measured following 330 nm xenon flash excitation. pIC50 values can be determined using a standard four parameter curve fit.
The affinity of molecules to the C-terminal domain (CTD) of human STING was determined using a commercial Human STING WT Binding Kit (CisBio, cat.# 64BDSTGPEG). In this time-resolved FRET assay, a recombinant human STING protein construct with a His-tag was employed. When bound to STING, a D2-labeled active site probe accepts the 620 nm emission from Anti-HIS-Tb-STING and an increase in fluorescence is measured at 665 nm. Molecules that compete for the probe binding site will result in a low 665 nm signal. The assay was run in CisBio low-volume white 96-well plates (catalog# 66PL96005) containing 5 µL compounds in Diluent Buffer (supplied with the CisBio kit). A solution of 1xSTING, 1x Anti-HIS-Tb and 1X D2-probe in TB detection buffer (kit supplied) was added to the plate. Plates were centrifuged for 2 min at 500 rpm, incubated for 60 min at room temperature in the dark, and then fluorescence emission at 665 nm following 330 nm xenon flash excitation on an BioTek synergy H1 multimode reader (Agilent) was measured. The plC50 values were determined using a standard four parameter curve fit in GraphPad Prism.
A general note: Time-resolved FRET reads energy transfer from a long-lived donor to a nearby acceptor.
Target sequence in this assay (Q86WV6 135-379 limits assumed): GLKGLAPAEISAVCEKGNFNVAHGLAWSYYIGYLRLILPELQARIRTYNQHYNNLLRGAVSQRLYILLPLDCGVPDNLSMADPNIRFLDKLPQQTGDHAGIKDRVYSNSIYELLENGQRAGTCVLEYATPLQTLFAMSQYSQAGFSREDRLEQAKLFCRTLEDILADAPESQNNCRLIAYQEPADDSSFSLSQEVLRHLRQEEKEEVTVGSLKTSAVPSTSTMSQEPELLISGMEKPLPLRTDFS

For assay [4] the target is unchanged. As to the kind of experiment: STING binding FP assay II (as FP assay I, lower STING concentration). As to conditions: 7 nM STING in buffer A, 4 nM fluorescein-labelled STING ligand (Probe 1). Set-up: recombinant human STING protein (155-379). As for the experimental part: as §1, §2
Target sequence in this assay (Q86WV6 155-379): as the sequence (Q86WV6 155-379) above
The procedure for STING binding FP assay II is the same as described for STING binding FP assay I, except for a lower STING concentration. In STING binding FP assay II, a concentration of 7 nM STING in buffer A was used.

Structures are written as SMILES.

T1 sequence (Q86WV6 whole entry): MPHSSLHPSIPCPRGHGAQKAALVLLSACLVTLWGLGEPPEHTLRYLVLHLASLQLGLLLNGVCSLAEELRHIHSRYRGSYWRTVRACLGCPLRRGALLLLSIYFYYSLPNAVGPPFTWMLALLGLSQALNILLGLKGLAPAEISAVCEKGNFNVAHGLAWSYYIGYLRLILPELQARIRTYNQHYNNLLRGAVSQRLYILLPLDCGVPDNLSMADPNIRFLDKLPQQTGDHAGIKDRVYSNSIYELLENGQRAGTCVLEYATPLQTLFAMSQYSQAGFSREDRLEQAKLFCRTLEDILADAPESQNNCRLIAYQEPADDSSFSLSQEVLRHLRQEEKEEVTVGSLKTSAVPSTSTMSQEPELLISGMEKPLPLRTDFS

What is called IC50 is the midpoint of a concentration-inhibition curve. Take `CCOC(=O)COC(CCn1c(=NC(=O)c2cc(C)nn2CC)n(C)c2cc(C(N)=O)ccc21)CCn1c(=NC(=O)c2cc(C)nn2CC)n(C)c2cc(C(N)=O)ccc21` (stereo not drawn) [Example 2, Ethyl (3-{5-carbamoyl-2-[(1-ethyl-3-methyl-5-pyrazolyl)carbonylimino]-3-methyl-2,3-dihydro-1H-1,3-benzimidazol-1-yl}-1-(2-{5-carbamoyl-2-[(1-ethyl-3-methyl-5-pyrazolyl)carbonylimino]-3-methyl-2,3-dihydro-1H-1,3-benzimidazol-1-yl}ethyl)propoxy)acetate]: the results for the IC50 in assay [1] and in assay [2] were 2500 nM and less than 30 nM, respectively. Taken in the same sequence, the figures for `CCn1nc(C)cc1C(=O)N=c1n(C)c2cc(C(N)=O)ccc2n1CCC(CCn1c(=NC(=O)c2cc(C)nn2CC)n(C)c2cc(C(N)=O)ccc21)OCC(=O)Nc1ccncn1` (stereo not drawn) [Example 8, 1-{3-[(N-4-Pyrimidinylcarbamoyl)methoxy]-5-{5-carbamoyl-2-[(1-ethyl-3-methyl-5-pyrazolyl)carbonylimino]-3-methyl-2,3-dihydro-1H-1,3-benzimidazol-1-yl}pentyl}-2-[(1-ethyl-3-methyl-5-pyrazolyl)carbonylimino]-3-methyl-2,3-dihydro-1H-1,3-benzimidazole-5-carboxamide] were 4700 nM and less than 30 nM. In the case of `CCn1nc(C)cc1C(=O)N=c1n(C)c2cc(C(N)=O)ccc2n1CCC(CCn1c(=NC(=O)c2cc(C)nn2CC)n(C)c2cc(C(N)=O)ccc21)OCC(=O)NC1CCN(C)CC1` (stereo not drawn) [Example 10, 1-{3-[(N-1-Methyl-4-piperidylcarbamoyl)methoxy]-5-{5-carbamoyl-2-[(1-ethyl-3-methyl-5-pyrazolyl)carbonylimino]-3-methyl-2,3-dihydro-1H-1,3-benzimidazol-1-yl}pentyl}-2-[(1-ethyl-3-methyl-5-pyrazolyl)carbonylimino]-3-methyl-2,3-dihydro-1H-1,3-benzimidazole-5-carboxamide], the IC50 came out at 0.869 nM in assay [3] and 3.5 nM in assay [4].

With `CCn1nc(C)cc1C(=O)N=c1n(C)c2cc(C(N)=O)ccc2n1CCC(CCn1c(=NC(=O)c2cc(C)nn2CC)n(C)c2cc(C(N)=O)ccc21)OCC(=O)N1CCC[C@H]1c1cccc(OC)c1` (stereo partly drawn) [Example 11, 1-(3-{2-[(S)-2-(3-Methoxyphenyl)-1-pyrrolidinyl]-2-oxoethoxy}-5-{5-carbamoyl-2-[(1-ethyl-3-methyl-5-pyrazolyl)carbonylimino]-3-methyl-2,3-dihydro-1H-1 ,3-benzimidazol-1-yl}pentyl)-2-[(1-ethyl-3-methyl-5-pyrazolyl)carbonylimino]-3-methyl-2,3-dihydro-1H-1,3-benzimidazole-5-carboxamide], the IC50 in assay [1] stood at 3400 nM; in assay [3] it was 0.862 nM; in assay [4], 2 nM. As for `CCn1nc(C)cc1C(=O)N=c1n(C)c2cc(C(N)=O)ccc2n1CCC(CCn1c(=NC(=O)c2cc(C)nn2CC)n(C)c2cc(C(N)=O)ccc21)OCC(=O)N(Cc1ccc(OC)cc1)C1CC1` (stereo not drawn) [Example 14, 1-[3-({N-Cyclopropyl[(p-methoxyphenyl)methyl]carbamoyl}methoxy)-5-{5-carbamoyl-2-[(1-ethyl-3-methyl-5-pyrazolyl)carbonylimino]-3-methyl-2,3-dihydro-1H-1,3-benzimidazol-1-yl}pentyl]-2-[(1-ethyl-3-methyl-5-pyrazolyl)carbonylimino]-3-methyl-2,3-dihydro-1H-1,3-benzimidazole-5-carboxamide], the IC50 in assay [3] stood at 0.659 nM. Still for that read-out and setting: under `CCn1nc(C)cc1C(=O)N=c1n(C)c2cc(C(N)=O)ccc2n1CCC(CCn1c(=NC(=O)c2cc(C)nn2CC)n(C)c2cc(C(N)=O)ccc21)OCC(=O)N1[C@H](C)COC[C@@H]1C` (stereo partly drawn) [Example 17, 1-(3-{2-[(3R,5S)-3,5-Dimethyl-4-morpholinyl]-2-oxoethoxy}-5-{5-carbamoyl-2-[(1-ethyl-3-methyl-5-pyrazolyl)carbonylimino]-3-methyl-2,3-dihydro-1H-1,3-benzimidazol-1-yl}pentyl)-2-[(1-ethyl-3-methyl-5-pyrazolyl)carbonylimino]-3-methyl-2,3-dihydro-1H-1,3-benzimidazole-5-carboxamide] stands 0.54 nM; under `CCn1nc(C)cc1C(=O)N=c1n(C)c2cc(C(N)=O)ccc2n1CCC(CCn1c(=NC(=O)c2cc(C)nn2CC)n(C)c2cc(C(N)=O)ccc21)OCC(=O)N(Cc1ccc(OC)cc1)Cc1ccccn1` (stereo not drawn) [Example 19, 1-(5-{5-Carbamoyl-2-[(1-ethyl-3-methyl-5-pyrazolyl)carbonylimino]-3-methyl-2,3-dihydro-1H-1,3-benzimidazol-1-yl}-3-({[(p-methoxyphenyl)methyl][(2-pyridyl)methyl]carbamoyl}methoxy)pentyl)-2-[(1-ethyl-3-methyl-5-pyrazolyl)carbonylimino]-3-methyl-2,3-dihydro-1H-1,3-benzimidazole-5-carboxamide], 1.11 nM.

Consider `CCn1nc(C)cc1C(=O)N=c1n(C)c2cc(C(N)=O)ccc2n1CCC(CCn1c(=NC(=O)c2cc(C)nn2CC)n(C)c2cc(C(N)=O)ccc21)OCC(=O)N1CCC[C@@H]1c1ccc(OC)cc1` (stereo partly drawn) [Example 20, 1-(3-{2-[(R)-2-(p-Methoxyphenyl)-1-pyrrolidinyl]-2-oxoethoxy}-5-{5-carbamoyl-2-[(1-ethyl-3-methyl-5-pyrazolyl)carbonylimino]-3-methyl-2,3-dihydro-1H-1,3-benzimidazol-1-yl}pentyl)-2-[(1-ethyl-3-methyl-5-pyrazolyl)carbonylimino]-3-methyl-2,3-dihydro-1H-1,3-benzimidazole-5-carboxamide], for which the IC50 in assay [3] amounted to 0.95 nM.

Take `CCn1nc(C)cc1C(=O)N=c1n(C)c2cc(C(N)=O)ccc2n1CCC(CCn1c(=NC(=O)c2cc(C)nn2CC)n(C)c2cc(C(N)=O)ccc21)OCC(=O)N1CCOC[C@@H]1c1ccccc1` (stereo partly drawn) [Example 30, 1-(3-{2-[(S)-3-Phenyl-4-morpholinyl]-2-oxoethoxy}-5-{5-carbamoyl-2-[(1-ethyl-3-methyl-5-pyrazolyl)carbonylimino]-3-methyl-2,3-dihydro-1H-1,3-benzimidazol-1-yl}pentyl)-2-[(1-ethyl-3-methyl-5-pyrazolyl)carbonylimino]-3-methyl-2,3-dihydro-1H-1,3-benzimidazole-5-carboxamide]: the IC50 was 3600 nM in assay [1] and 3.7 nM in assay [4].

These data come from patent publication EP4534147A1, “STING ANTAGONIST COMPOUNDS” (Sulis Therapeutics ApS, priority 2023, dated 2025).
